The values that follow are results of earlier work, collected in patent publication US20240016743A1, “A METHOD FOR PRODUCING ENTACAPONE TABLETS” (CHINA MEHECO KANGLI PHARMA CO., LTD, priority 2021, published 2024).

Structures are written as SMILES.

The conditions of this data set: clinical trials.

For `N[C@@H](Cc1ccc(O)c(O)c1)C(=O)O` [levodopa], the “prolong the "On" time” value is given as 16% and the “shorten the "Off" time” value is 24%.
